18 compounds from BindingDB's records for patent US20250099442 (Prothena Biosciences, 2025) can be followed below.

Some results are limits rather than exact numbers.

The experiment has as its target Dual specificity tyrosine-phosphorylation-regulated kinase 1A (Homo sapiens, UniProt Q13627). Kind of experiment: DYRK1A Inhibition Assay. On the procedure: Assay Procedure1. Add 5 μL enzyme & substrate mixture to each well in Column 2-23 and A24-H24 wells of the 384-well assay plate;2. Add 5 μL 0% Phosphorylation control to A1-H1 and I24-P24 wells of the assay plate;3. Add 5 μL 100% Phosphorylation control to I1-P1 wells of the assay plate;4. Spin the assay plate (1000 rpm, 1 minute @23° C.);5. Incubate enzyme with compounds for 15 minutes at 23° C.;6. Add 5 μL ATP solution to each well of the assay plate;7. Spin the plate (1000 rpm, 1 minute @23° C.);8. Incubate the assay plate for 90 minutes at 23° C.;9. Add 10 μL Development reagent A to each well of the assay plate;10. Centrifuge the plate at 1000 rpm about 15 seconds and seal a film over assay plate. Incubate the assay plate for 30 minutes at 23° C.11. Read assay plates on Envision
Take `COc1ccc(CN2Cc3ncc(-c4ccc(C#N)cc4)n3CC2=O)cc1` [US20250099442, Compound I.82]: the IC50 was > 1000 nM.

`c1cc(-c2ccc3ncsc3c2)c(OC2CCC2)cn1` [US20250099442, Compound I.83] gave an IC50 of 100 to 1000 nM.

`Cc1cc(-c2cn3ncc(-c4ccc(O)c(C#N)c4)c3c(=O)n2C)ccn1` [US20250099442, Compound I.84] registered an IC50 of 10 to 100 nM.

In turn, `CCCOc1cc(COC2CCN(C)CC2)nc2[nH]cc(-c3ccncc3)c12` [US20250099442, Compound I.85] showed an IC50 of 10 to 100 nM.

The compound `c1cncc(-c2ccc3cncc(OC4CCNC4)c3c2)c1` (stereo not drawn) [US20250099442, Compound I.87] returned an IC50 of 100 to 1000 nM.

In turn, `CN1CCC(Oc2cnc3[nH]cc(-c4cc[nH]c(=O)c4)c3n2)C1` (stereo not drawn) [US20250099442, Compound I.88] registered an IC50 of 100 to 1000 nM.

Consider `CN1CCC(C2CN(c3ncc(-c4ccncc4)c4c3C(=O)NC4)C2)CC1` [US20250099442, Compound I.89], for which the IC50 was > 1000 nM.

For `CN1CCC(C#Cc2cc(-c3cn(C4CCOCC4)c4cnccc34)ccn2)CC1` [US20250099442, Compound I.91], the IC50 is < 10 nM.

As for `C(#CC1CCOCC1)c1cc(-c2cn(C3CCOCC3)c3cnccc23)ccn1` [US20250099442, Compound I.92], the IC50 was < 10 nM.

On to `CCN1CCC(C(=O)Nc2cc(-c3ccc4ncn(C(F)F)c4c3)ccn2)CC1` [US20250099442, Compound I.93], for which the IC50 fell in the range of 10 to 100 nM.

For `CCN1CCC(C(=O)Nc2cc(-c3ccc4c(c3)ncn4C(F)F)ccn2)CC1` [US20250099442, Compound I.94], the IC50 is > 1000 nM.

Consider `OC1(C#Cc2ccc3c(-c4ccncc4)c[nH]c3n2)CCNCC1` [US20250099442, Compound I.95], for which the IC50 fell in the range of 100 to 1000 nM.

For `CC(C)CN1CCC(O)(C#Cc2ccc3c(-c4ccncc4)c[nH]c3n2)CC1` [US20250099442, Compound I.96], the half-maximal inhibitory concentration (IC50) lay in the range of 100 to 1000 nM.

As to `CC(C)CN1CCC(C#Cc2nc3ccc(-c4ccnc(N)c4)nc3n2C2CC2)CC1` [US20250099442, Compound I.99], the IC50 was in the range of 10 to 100 nM.

In turn, `CC(C)CN1CCC(C#Cc2cc(-c3cn(C4CCOCC4)c4cnccc34)ccn2)CC1` [US20250099442, Compound I.100] gave an IC50 of 10 to 100 nM.

The compound `CN1CCC(C(=O)Nc2ncc(-c3ccc4ncn(C)c4c3)s2)CC1` [US20250099442, Compound I.102] showed an IC50 of 10 to 100 nM.

As to `CCCOc1cc(COC2CCN(C)CC2)nc2[nH]cc(C(F)(F)F)c12` [US20250099442, Compound II.7], the IC50 is < 500 nM.

Take `CC(=O)Nc1ccc2cnc(NC(=O)C3CCN(C)CC3)cc2c1` [US20250099442, Compound II.22]: the IC50 was < 500 nM.

The term IC50 denotes the concentration needed to halve the response being measured. High values mean a need for much substance, low ones inhibition by little substance.
